Experimental data from patent US8648086B2, “5,6-bicyclic heteroaryl-containing urea compounds as kinase inhibitors” (Ascepion Pharmaceuticals, Inc., priority 2009, dated 2014).
Structures can show the parent of a compound that is named as a salt.

Assays:
c-Met = biological target: T1, c-Met (Homo sapiens, UniProt P08581); assay: c-Met cell-based assay (phospho-c-Met ELISA, A549 cells); conditions: compound at 100 nM
T1 construct: endogenous in cells; host or cells: A549 cells
In short: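 Serum-starved A549 cells (NSCLC) pretreated 2 h with compound (0.5 nM to 500 nM), then stimulated 20 min with 20% FBS. Lysates analysed by ELISA for phospho-c-Met and total c-Met with streptavidin-HRP chemiluminescence.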

[1] = test system: BEL-7404 human hepatocellular carcinoma; assay: In vivo anti-tumor efficacy, BEL-7404 xenograft; conditions: Liver cancer BEL-7404, nu/nu Balb/c mice, 50 mg/kg oral once per day, n = 2 × 3
Experimental: Female (nu/nu) Balb/c athymic mice at 4-6 weeks of age were injected subcutaneously (s.c.) with MDA-MB-231 human breast cancer cells, A549 human non-small cell lung cancer cells, U87-MG human glioblastoma cells, PC-3 human prostate cancer cells, HT-29 human colon cancer, BEL-7404 human hepatocellular carcinoma, or MKN-45 human gastric cancer cells (ATCC, 5×10^6 cells suspended in 100 μl DMEM medium). Treatment was initiated after the tumor mass grown from s.c. implanted tumor cells reached a median volume of 200-400 mm^3. Mice were randomized into groups with three in each group for small-sample efficacy tests such that the median tumor volume is nearly equal among all groups. […] Tumor volumes were assessed at least twice weekly by caliper measurement from the start of treatment. Tumor volume was calculated using the formula ½×L×W^2 (L: length of tumor's long axis, W: length of tumor's short axis). […]
(§1) The efficacy of compounds in reducing tumor growth was assessed by the index Tumor Growth Inhibition (TGI). TGI for a given treatment period was calculated using the group mean tumor volumes according to the formula: TGI=100×(VVehicle—group−VTreatment—group)÷VVehicle—group wherein VVehicle—group represents the mean tumor volume for the group treated with vehicle and VTreatment—group represents the mean tumor volume of the group treated with a compound.

[2] = test system: MDA-MB-231 human breast cancer cells; assay: In vivo anti-tumor efficacy, MDA-MB-231 xenograft; conditions: Breast cancer MDA-MB-231, nu/nu Balb/c mice, 100 mg/kg oral once per day, n = 2 × 3
Experimental: (§2) Female (nu/nu) Balb/c athymic mice at 4-6 weeks of age were injected subcutaneously (s.c.) with MDA-MB-231 human breast cancer cells, A549 human non-small cell lung cancer cells, U87-MG human glioblastoma cells, PC-3 human prostate cancer cells, HT-29 human colon cancer, BEL-7404 human hepatocellular carcinoma, or MKN-45 human gastric cancer cells (ATCC, 5×10^6 cells suspended in 100 μl DMEM medium). Treatment was initiated after the tumor mass grown from s.c. implanted tumor cells reached a median volume of 200-400 mm^3. Mice were randomized into groups with three in each group for small-sample efficacy tests such that the median tumor volume is nearly equal among all groups. For large-sample efficacy tests, mice were randomized into groups with thirteen or fourteen in each group. Each group was treated either with compounds (dissolved in 2:1 mixture of PEG400 and 0.01N HCl (v/v)) or without compounds (vehicle only, 2:1 mixture of PEG400 and 0.01N HCl (v/v)) once per day at dose 12.5, 25, 50 or 100 mg/kg by oral gavage. Tumor volumes were assessed at least twice weekly by caliper measurement from the start of treatment. Tumor volume was calculated using the formula ½×L×W^2 (L: length of tumor's long axis, W: length of tumor's short axis). Treatment was applied for at least two weeks or until the tumor volume reaches a size of ˜2500 mm^3 or greater. Mice were humanly sacrificed after the experiment.
as §1

VEGFR2 = biological target: T2, VEGFR2 (Homo sapiens, UniProt P35968); assay: VEGFR2 cell-based assay (phospho-VEGFR2 ELISA, transfected CHO cells); conditions: compound at 100 nM, read-out: % VEGFR2 kinase activity remains
T2 construct: expressed in transfected cells; host or cells: CHO cells, pcDNA3.1 plasmid
T2 sequence (P35968 20-1356, species assumed): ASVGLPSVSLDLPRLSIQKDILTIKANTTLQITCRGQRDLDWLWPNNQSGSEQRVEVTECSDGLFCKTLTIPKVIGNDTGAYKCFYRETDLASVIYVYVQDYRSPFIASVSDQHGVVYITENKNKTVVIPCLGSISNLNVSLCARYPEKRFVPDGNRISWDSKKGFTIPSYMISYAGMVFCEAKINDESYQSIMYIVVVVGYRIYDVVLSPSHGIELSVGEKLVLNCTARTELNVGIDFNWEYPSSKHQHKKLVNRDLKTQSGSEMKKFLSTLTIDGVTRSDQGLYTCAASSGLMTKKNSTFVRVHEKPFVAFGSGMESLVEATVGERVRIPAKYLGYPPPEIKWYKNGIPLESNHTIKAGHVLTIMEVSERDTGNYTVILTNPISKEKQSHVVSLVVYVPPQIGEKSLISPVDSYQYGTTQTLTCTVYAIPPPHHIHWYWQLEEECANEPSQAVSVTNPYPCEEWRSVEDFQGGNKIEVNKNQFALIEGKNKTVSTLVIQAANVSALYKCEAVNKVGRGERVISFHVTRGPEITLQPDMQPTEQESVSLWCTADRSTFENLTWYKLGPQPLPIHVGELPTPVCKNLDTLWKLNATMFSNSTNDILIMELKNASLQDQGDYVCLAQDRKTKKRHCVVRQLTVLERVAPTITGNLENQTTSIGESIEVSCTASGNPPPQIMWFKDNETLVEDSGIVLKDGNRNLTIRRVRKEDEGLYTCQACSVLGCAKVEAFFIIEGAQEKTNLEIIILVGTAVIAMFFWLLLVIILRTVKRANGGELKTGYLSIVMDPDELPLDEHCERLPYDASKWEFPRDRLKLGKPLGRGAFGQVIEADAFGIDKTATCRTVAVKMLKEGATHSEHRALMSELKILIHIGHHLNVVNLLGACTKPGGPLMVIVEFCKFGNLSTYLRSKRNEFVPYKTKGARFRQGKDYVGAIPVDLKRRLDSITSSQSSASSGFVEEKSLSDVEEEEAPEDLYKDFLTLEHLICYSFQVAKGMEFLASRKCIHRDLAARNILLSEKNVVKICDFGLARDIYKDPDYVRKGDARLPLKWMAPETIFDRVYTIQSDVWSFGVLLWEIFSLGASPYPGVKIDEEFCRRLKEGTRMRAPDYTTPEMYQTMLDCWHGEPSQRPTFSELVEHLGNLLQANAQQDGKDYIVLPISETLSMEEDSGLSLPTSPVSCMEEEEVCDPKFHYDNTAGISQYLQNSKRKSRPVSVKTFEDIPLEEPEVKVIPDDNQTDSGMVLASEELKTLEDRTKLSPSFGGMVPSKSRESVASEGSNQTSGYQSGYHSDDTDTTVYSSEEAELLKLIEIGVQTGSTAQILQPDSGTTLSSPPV
In short: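 Serum-starved CHO cells transfected with full-length VEGFR2 treated 2 h with compound (0.5–500 nM), then stimulated with 20% FBS. Lysates analyzed by ELISA for phospho- and total VEGFR2 using streptavidin-HRP chemiluminescence.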

[3] = test system: A549 human non-small cell lung cancer cells; assay: In vivo anti-tumor efficacy, A549 xenograft; conditions: Non-small cell lung cancer A549, nu/nu Balb/c mice, n = 2 × 3
Experimental: as §2, with “experiment. The efficacy of compounds in reducing tumor growth was assessed by the index Tumor Growth Inhibition (TGI). TGI for a given treatment period was calculated using the group mean tumor volumes according to the formula: TGI=100×(VVehicle—group−VTreatment—group)÷VVehicle—group wherein VVehicle—group represents the mean tumor volume for the group treated with vehicle and VTreatment—group represents the mean tumor volume of the group treated with a compound.” for “experiment.”

HT-1299 = assay: In vivo anti-tumor efficacy, HT-1299 lung cancer xenograft; conditions: Lung cancer HT-1299, nu/nu Balb/c mice, 100 mg/kg oral once per day, n = 2 × 3
PDGFRβ = biological target: T3, PDGFRβ (Homo sapiens, UniProt P09619); assay: PDGFRβ cell-based assay (phospho-PDGFRβ ELISA, transfected CHO cells); conditions: compound at 100 nM, read-out: % PDGFRβ kinase activity remains
T3 construct: expressed in transfected cells; host or cells: CHO cells, pcDNA3.1 plasmid
T3 sequence (P09619 33-1106, species assumed): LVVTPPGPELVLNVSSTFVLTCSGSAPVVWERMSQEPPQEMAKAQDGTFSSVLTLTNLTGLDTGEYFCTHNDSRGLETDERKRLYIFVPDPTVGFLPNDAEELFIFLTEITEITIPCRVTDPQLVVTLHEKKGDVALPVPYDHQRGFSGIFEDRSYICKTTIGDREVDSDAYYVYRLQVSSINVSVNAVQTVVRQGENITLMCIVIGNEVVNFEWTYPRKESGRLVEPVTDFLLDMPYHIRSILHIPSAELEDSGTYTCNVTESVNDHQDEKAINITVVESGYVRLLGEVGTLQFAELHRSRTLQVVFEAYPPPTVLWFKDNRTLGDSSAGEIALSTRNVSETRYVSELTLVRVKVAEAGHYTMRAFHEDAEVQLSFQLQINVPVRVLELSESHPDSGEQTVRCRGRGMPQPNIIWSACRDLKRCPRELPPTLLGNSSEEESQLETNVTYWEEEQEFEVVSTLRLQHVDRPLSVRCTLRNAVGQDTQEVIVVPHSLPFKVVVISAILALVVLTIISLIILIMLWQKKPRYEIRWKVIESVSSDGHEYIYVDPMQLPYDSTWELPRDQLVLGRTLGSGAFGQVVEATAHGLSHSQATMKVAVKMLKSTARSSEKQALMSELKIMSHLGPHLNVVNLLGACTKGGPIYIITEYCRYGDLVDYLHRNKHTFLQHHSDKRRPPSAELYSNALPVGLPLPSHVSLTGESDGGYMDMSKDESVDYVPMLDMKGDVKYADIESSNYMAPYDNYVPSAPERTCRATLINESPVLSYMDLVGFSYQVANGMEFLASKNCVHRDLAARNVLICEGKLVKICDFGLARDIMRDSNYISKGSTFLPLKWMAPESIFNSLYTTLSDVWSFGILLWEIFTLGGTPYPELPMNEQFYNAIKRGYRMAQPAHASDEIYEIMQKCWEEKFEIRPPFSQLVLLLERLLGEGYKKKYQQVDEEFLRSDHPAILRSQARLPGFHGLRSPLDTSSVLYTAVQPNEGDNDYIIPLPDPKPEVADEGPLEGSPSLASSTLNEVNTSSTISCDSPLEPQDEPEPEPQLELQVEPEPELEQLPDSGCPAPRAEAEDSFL
Experimental: A standard cell-based assay for PDGFRβ kinase activity can be used to test a compound of this invention and to identify PDGFRβ antagonists.
Specifically, a compound to be tested was first dissolved in DMSO to a concentration of 10 mM and stored at −20° C. The activity of PDGFRβ in cells depends on the phosphorylation level of its intracellular domain induced by the ligand. In order to express PDGFRβ in the cell, full length PDGFRβ sequence was cloned into PC-DNA3.1 vector. The plasmid was then transfected into CHO cells. After 48 hours following the transfection, the expression of PDGFRβ in transfected CHO cells was confirmed by regular western blotting.
To screen the compound of this invention, the ELISA kit (R&D Systems, Minneapolis, Minn., USA) was used. One day before the screening, CHO cells transfected with full length PDGFRβ plasmid were grown in DMEM medium without the presence of serum. On the day of screening, various concentrations of compounds (from 0.5 nM to 500 nM) were added into DMEM medium. Two hours later, 20% of FBS (Fetal Bovine Serum) was added into the medium to stimulate the expression of phosphor-PDGFRβ. Cell lysate from approximately 5×10^5 transfected CHO cells were reacted with anti-phosphor-PDGFRβ or anti-total PDGFRβ antibody in 96 well plates, in the presence of detection antibody, the phosphor-PDGFRβ or total PDGFRβ were detected with Streptavidin-HRP (R&D Systems), followed by chemiluminescent detection.

c-Kit = biological target: T4, c-Kit (Homo sapiens, UniProt P10721); assay: KINOMEscan competition binding assay, c-Kit; conditions: compound at 100 nM; lower number indicates stronger hit
T4 construct: purchased KINOMEscan service (Ambit Biosciences, San Diego)
Experimental: (§3) A standard competition binding assay can be used to test the ability of a compound of this invention on competing with both intended and unintended kinases in vitro. To screen a compound against a large number of human kinases, a competition binding assay with an active-site dependent binding technology was performed by KINOMEscan service (Ambit Biosciences, San Diego, Cal., USA). Three components were combined in this assay—DNA-tagged kinase, immobilized ligand, and the test compound. The ability of the test compound to compete with the immobilized ligand was measured by quantitative PCR of the DNA of the DNA tag. A number of the compounds of this invention were screened at the concentration of 100 nM by this binding assay, and the results were reported as “% Ctrl,” and the lower number indicates stronger “hit” in this matrix.

EPHA2 = biological target: T5, EPHA2 (Homo sapiens, UniProt P29317); assay: KINOMEscan competition binding assay, EPHA2; conditions: compound at 100 nM; lower number indicates stronger hit
T5 construct: purchased KINOMEscan service (Ambit Biosciences, San Diego)
Experimental: as §3

[4] = test system: MKN-45 human gastric cancer cells; assay: In vivo anti-tumor efficacy, MKN-45 xenograft; conditions: Gastric cancer MKN-45, nu/nu Balb/c mice, 100 mg/kg oral once per day, n = 2 × 3
Experimental: as §2, with “experiment. The efficacy of compounds in reducing tumor growth was assessed by the index Tumor Growth Inhibition (TGI). TGI for a given treatment period was calculated using the group mean tumor volumes according to the formula: TGI=100×(VVehicle—group−VTreatment—group)÷VVehicle—group wherein VVehicle—group represents the mean tumor volume for the group treated with vehicle and VTreatment—group represents the mean tumor volume of the group treated with a compound.” for “experiment.”

CSF-1R = biological target: T6, CSF-1R (Homo sapiens, UniProt P07333); assay: KINOMEscan competition binding assay, CSF-1R; conditions: compound at 100 nM; lower number indicates stronger hit
T6 construct: purchased KINOMEscan service (Ambit Biosciences, San Diego)
T6 sequence (P07333 20-972): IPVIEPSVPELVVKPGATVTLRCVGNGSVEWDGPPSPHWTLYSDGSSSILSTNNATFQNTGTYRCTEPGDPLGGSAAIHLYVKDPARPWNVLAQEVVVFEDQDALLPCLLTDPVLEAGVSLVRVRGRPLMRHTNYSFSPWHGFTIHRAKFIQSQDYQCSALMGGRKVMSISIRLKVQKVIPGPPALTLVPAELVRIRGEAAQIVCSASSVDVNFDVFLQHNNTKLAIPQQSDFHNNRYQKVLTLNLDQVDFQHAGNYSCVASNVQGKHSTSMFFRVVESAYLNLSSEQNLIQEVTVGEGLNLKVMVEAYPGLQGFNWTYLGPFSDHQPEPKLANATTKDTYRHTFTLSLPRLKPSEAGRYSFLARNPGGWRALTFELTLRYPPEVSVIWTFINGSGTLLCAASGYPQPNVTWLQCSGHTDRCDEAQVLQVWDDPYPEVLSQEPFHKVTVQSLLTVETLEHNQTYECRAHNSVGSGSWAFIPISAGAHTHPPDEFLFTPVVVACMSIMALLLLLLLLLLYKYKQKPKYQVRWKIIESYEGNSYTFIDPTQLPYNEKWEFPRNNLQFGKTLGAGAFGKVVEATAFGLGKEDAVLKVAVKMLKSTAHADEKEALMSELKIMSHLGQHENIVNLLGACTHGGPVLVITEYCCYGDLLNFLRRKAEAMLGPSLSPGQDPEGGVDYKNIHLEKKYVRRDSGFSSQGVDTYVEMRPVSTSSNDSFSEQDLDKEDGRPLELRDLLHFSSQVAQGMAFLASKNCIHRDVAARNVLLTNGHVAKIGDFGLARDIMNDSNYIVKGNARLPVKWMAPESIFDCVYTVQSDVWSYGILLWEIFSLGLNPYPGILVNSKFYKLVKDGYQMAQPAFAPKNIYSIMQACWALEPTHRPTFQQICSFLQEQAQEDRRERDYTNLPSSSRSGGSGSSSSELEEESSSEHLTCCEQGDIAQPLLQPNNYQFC
Experimental: as §3

[5] = test system: PC-3 human prostate cancer cells; assay: In vivo anti-tumor efficacy, PC-3 xenograft; conditions: Prostate cancer PC-3, nu/nu Balb/c mice, n = 2 × 3
Experimental: as §2, with “experiment. The efficacy of compounds in reducing tumor growth was assessed by the index Tumor Growth Inhibition (TGI). TGI for a given treatment period was calculated using the group mean tumor volumes according to the formula: TGI=100×(VVehicle—group−VTreatment—group)÷VVehicle—group wherein VVehicle—group represents the mean tumor volume for the group treated with vehicle and VTreatment—group represents the mean tumor volume of the group treated with a compound.” for “experiment.”

[6] = test system: U87-MG human glioblastoma cells; assay: In vivo anti-tumor efficacy, U87-MG xenograft; conditions: nu/nu Balb/c mice, 100 mg/kg oral once per day, n = 2 × 3
Experimental: Female (nu/nu) Balb/c athymic mice at 4-6 weeks of age were injected subcutaneously (s.c.) with MDA-MB-231 human breast cancer cells, A549 human non-small cell lung cancer cells, U87-MG human glioblastoma cells, PC-3 human prostate cancer cells, HT-29 human colon cancer, BEL-7404 human hepatocellular carcinoma, or MKN-45 human gastric cancer cells (ATCC, 5×10^6 cells suspended in 100 μl DMEM medium). Treatment was initiated after the tumor mass grown from s.c. implanted tumor cells reached a median volume of 200-400 mm^3. Mice were randomized into groups with three in each group for small-sample efficacy tests such that the median tumor volume is nearly equal among all groups. […] Tumor volumes were assessed at least twice weekly by caliper measurement from the start of treatment. Tumor volume was calculated using the formula ½×L×W^2 (L: length of tumor's long axis, W: length of tumor's short axis). […] The efficacy of compounds in reducing tumor growth was assessed by the index Tumor Growth Inhibition (TGI). TGI for a given treatment period was calculated using the group mean tumor volumes according to the formula: TGI=100×(VVehicle—group−VTreatment—group)÷VVehicle—group wherein VVehicle—group represents the mean tumor volume for the group treated with vehicle and VTreatment—group represents the mean tumor volume of the group treated with a compound.

T1 sequence (P08581 25-1390): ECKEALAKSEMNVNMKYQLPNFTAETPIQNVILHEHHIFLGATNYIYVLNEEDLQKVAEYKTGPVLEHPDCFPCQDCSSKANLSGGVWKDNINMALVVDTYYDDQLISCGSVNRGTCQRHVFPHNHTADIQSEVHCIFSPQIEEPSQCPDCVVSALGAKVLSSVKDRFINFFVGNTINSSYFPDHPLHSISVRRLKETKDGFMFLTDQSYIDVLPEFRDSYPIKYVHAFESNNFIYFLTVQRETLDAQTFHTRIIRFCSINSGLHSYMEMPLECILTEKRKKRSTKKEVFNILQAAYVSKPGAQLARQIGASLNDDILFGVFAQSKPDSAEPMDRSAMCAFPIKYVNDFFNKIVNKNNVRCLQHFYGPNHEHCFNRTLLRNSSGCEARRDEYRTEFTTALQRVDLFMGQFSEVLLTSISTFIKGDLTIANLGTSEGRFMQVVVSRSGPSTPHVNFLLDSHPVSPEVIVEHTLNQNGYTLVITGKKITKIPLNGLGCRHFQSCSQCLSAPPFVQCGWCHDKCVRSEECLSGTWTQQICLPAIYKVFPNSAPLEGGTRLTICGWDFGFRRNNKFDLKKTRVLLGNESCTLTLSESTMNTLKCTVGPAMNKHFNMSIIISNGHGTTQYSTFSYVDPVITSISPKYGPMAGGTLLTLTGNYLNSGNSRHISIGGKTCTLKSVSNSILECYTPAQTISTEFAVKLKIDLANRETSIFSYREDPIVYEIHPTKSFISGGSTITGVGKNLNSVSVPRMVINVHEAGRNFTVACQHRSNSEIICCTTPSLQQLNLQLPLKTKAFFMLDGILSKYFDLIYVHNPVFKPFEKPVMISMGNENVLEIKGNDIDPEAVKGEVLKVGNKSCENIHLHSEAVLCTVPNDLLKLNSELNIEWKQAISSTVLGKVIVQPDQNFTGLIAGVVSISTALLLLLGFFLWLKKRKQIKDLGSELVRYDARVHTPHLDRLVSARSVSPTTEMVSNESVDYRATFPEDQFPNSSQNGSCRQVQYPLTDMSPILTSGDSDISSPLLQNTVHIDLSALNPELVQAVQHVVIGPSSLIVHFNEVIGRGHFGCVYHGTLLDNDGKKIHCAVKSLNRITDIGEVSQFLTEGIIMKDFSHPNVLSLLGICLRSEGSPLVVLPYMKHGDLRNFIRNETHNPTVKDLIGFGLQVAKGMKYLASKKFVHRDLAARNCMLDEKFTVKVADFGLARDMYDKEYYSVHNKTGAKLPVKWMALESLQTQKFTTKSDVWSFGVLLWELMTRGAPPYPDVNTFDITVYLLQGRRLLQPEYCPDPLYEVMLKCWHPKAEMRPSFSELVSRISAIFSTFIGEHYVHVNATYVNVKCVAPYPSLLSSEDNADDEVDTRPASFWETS

| SMILES | % c-Met kinase activity remains (c-Met) | Tumor Growth Inhibition (TGI) [1] | Tumor Growth Inhibition (TGI) [2] | remaining activity at 0.1 µM (VEGFR2) [%] | Tumor Growth Inhibition (TGI) ([3]; 100 mg/kg oral once per day) | Tumor Growth Inhibition (TGI) (HT-1299) | remaining activity at 0.1 µM (PDGFRβ) [%] | c-Kit % Ctrl (c-Kit) [% Ctrl] | EPHA2 % Ctrl (EPHA2) [% Ctrl] | Tumor Growth Inhibition (TGI) [4] | CSF-1R % Ctrl (CSF-1R) [% Ctrl] | Tumor Growth Inhibition (TGI) ([3]; 50 mg/kg oral once per day) | Tumor Growth Inhibition (TGI) ([5]; 50 mg/kg oral once per day) | Tumor Growth Inhibition (TGI) ([5]; 100 mg/kg oral once per day) | Tumor Growth Inhibition (TGI) [6] |
| --- | --- | --- | --- | --- | --- | --- | --- | --- | --- | --- | --- | --- | --- | --- | --- |
| O=C(Nc1cccc(Cl)c1)Nc1cccc2c1ccn2Cc1ccnc2[nH]ccc12 [Example 38, 1-(3-Chlorophenyl)-3-[1-(1H-pyrrolo[2,3-b]pyridin-4-ylmethyl)-1H-indol-4-yl]urea hydrochloride] | A (the percentage of kinase activity remains is below 70%) | A (the TGI is greater or equal to 50%) | A (the TGI is greater or equal to 50%) | < 70 | – | – | – | – | – | – | – | – | – | – | – |
| COc1ccc(Cl)cc1NC(=O)Nc1cccc2c1ccn2Cc1c[nH]c2ncccc12.Cl [Example 3, 1-(2-Methoxyl-5-chlorophenyl)-3-[1-(1H-pyrrolo[2,3-b]pyridin-3-ylmethyl)-1H-indol-4-yl]urea hydrochloride] | A (the percentage of kinase activity remains is below 70%) | – | A (the TGI is greater or equal to 50%) | < 70 | A (the TGI is greater or equal to 50%) | A (the TGI is greater or equal to 50%) | ≥ 70 | – | – | – | – | – | – | – | – |
| Cc1cccc(NC(=O)Nc2cccc3c2ccn3Cc2ccnc3[nH]ccc23)c1.Cl [Example 44, 1-(3-Methylphenyl)-3-[1-(1H-pyrrolo[2,3-b]pyridin-4-ylmethyl)-1H-indol-4-yl]urea hydrochloride] | A (the percentage of kinase activity remains is below 70%) | – | A (the TGI is greater or equal to 50%) | < 70 | – | – | – | 0.35 | 6 | A (the TGI is greater or equal to 50%) | 0.8 | A (the TGI is greater or equal to 50%) | A (the TGI is greater or equal to 50%) | – | – |
| COc1ccc(Cl)cc1NC(=O)Nc1cccc2c1ccn2Cc1ccnc2[nH]ccc12.Cl [Example 2a/2b, 1-(2-Methoxyl-5-chlorophenyl)-3-[1-(1H-pyrrolo[2,3-b]pyridin-4-ylmethyl)-1H-indol-4-yl]urea hydrochloride] | A (the percentage of kinase activity remains is below 70%) | – | A (the TGI is greater or equal to 50%) | < 70 | A (the TGI is greater or equal to 50%) | – | – | – | – | A (the TGI is greater or equal to 50%) | – | – | – | A (the TGI is greater or equal to 50%) | A (the TGI is greater or equal to 50%) |
